Measurements taken from US12329827B2, “Devices, compositions and related methods for accelerating and enhancing bone repair” (THE REGENTS OF THE UNIVERSITY OF MICHIGAN, priority 2015, dated 2025).

Assays:
[1] = tested on: irradiated mandible fracture; assay: Fracture healing in the irradiated mandible, DFO injected into callus site (Example II); assay type: in vivo, rats
Description: The effects of radiation on bone formation and healing are mediated through the mechanisms of vascular damage, direct cellular depletion and diminished function of osteocytes. Over time, this accumulated damage predisposes patients to the debilitating problem of late pathologic fractures and non-unions. Here, the use of DFO was employed to bolster the vascular response during bone healing in this setting. It was posited that the untoward effects of radiotherapy on vascular density and osteocyte count and ultimately the mineralization and biomechanical strength of our bone would be improved with the addition of DFO. 12 rats received fractionated radiotherapy to left hemi-mandibles. After recovery, fracture repair ensued with external fixator placement and mandibular osteotomy. DFO was injected into the callus site every other day from post-operative days 4-12. A 40-day healing period was allowed prior to vessel perfusion, PCT, BMT, and histologic processing. Mandibles were dissected and gross union was assessed. Union was defined as bony bridging and the absence of motion across the fracture site. Outcome data was analyzed with ANOVA, and p≤0.05 was statistically significant. The DFO group was compared with two other groups: fracture-Fx and radiated fracture-XFx (n=12, 12).

[2] = tested on: irradiated mandibular fractures; assay: Irradiated mandibular fracture, implanted nano-DFO vs standard DFO (Example V); assay type: in vivo, Rats; conditions: radiated fracture, 40-day healing
Description: Rats (n=44) were divided into 4 groups. Fracture, radiated fracture, radiated fracture with standard DFO and radiated fracture with nano-DFO. Radiated groups received radiotherapy 2 weeks prior to mandibular osteotomy. The nano-DFO group received implantation of the drug at the time of surgery. Following a 40-day healing period, mandibles were assessed for bony-union, imaged with μCT, and mechanically tested to failure. ANOVA was used for comparison and (p<0.05).

[3] = tested on: murine mandibular DO model; assay: Mandibular distraction osteogenesis model, DFO injections into the regenerate gap (Example I); assay type: in vivo, Sprague-Dawley rats
Description: The effectiveness of DFO in enhancing regenerate vascularity at a full consolidation period (28 days) in a murine mandibular DO model was established. To investigate whether this augmentation in vascularity would function to accelerate consolidation without compromising regenerate quality or strength, consolidation periods prior to μCT imaging and biomechanical testing (BMT) were progressively shortened. Three time points (14 d, 21 d and 28 d) were selected and six groups of Sprague-Dawley rats (n=60) were equally divided into control (C) and experimental (E) groups for each time period. Each group underwent external fixator placement, mandibular osteotomy, and a 5.1 mm distraction. During distraction, the experimental groups were treated with DFO injections into the regenerate gap. After consolidation, mandibles were imaged and tension tested to failure. ANOVA was conducted between groups, and p<0.05 was considered statistically significant. […] The benefit of treatment was further substantiated by a striking 100% increase in the number of clinically appreciated bony unions at this early time-period (C:4/10 vs. E:8/10, FIG. 2) (see, e.g., Donneys, Alexis, et al., Bone 55.2 (2013): 384-390).

[4] = tested on: human umbilical vein endothelial (HUVEC) cells exposed to radiation; assay: Tubule formation of irradiated HUVEC cells in Matrigel (Example III); assay type: cell-based
Description: The effect of DFO on endothelial cells exposed to radiation in vitro was investigated. […] Four groups of human umbilical vein endothelial (HUVEC) cells (control, radiated, radiated+low dose DFO, or radiated+high dose DFO) were incubated in Matrigel and video recorded in real-time over 12 hours. DFO groups received either 25 or 50 μM doses at the time of incubation. Tubule formation was photographed at 100× magnification every four hours. Tubule numbers between groups were compared using ANOVA with p≤0.05 considered statistically significant. A severe diminution in endothelial tubule formation after radiotherapy was observed. Specifically, tubule formation was diminished 30%, 34%, and 27% respectively, compared to control values (p=0.01, at 4, 8, and 12 hours). The effects of radiation were strikingly remediated by treatment with high-dose DFO. […] These findings were clearly observed with real-time recording. […] This evidence supports the contention that DFO strongly remediates the effects of radiation on endothelial tubule formation (see, e.g., Donneys, Alexis, et al., Plastic and Reconstructive Surgery 131.5S (2013): 141).

SMILES: CC(=O)N(O)CCCCCNC(=O)CCC(=O)N(O)CCCCCNC(=O)CCC(=O)N(O)CCCCCN [DFO, N′-{5-[Acetyl(hydroxy)amino]pentyl}-N-[5-({4-[(5-aminopentyl)(hydroxy)amino]-4-oxobutanoyl}amino)pentyl]-N-hydroxysuccinamide]
- BMT and mineralization metrics vs Fx group ([1]; 40-day healing): no difference
- BMT and mineralization metrics vs XFx group ([1]; 40-day healing): significant increase
- Vessel Number, Thickness and Separation ([1]; 40-day healing): significant restorative effects
- increase in bony unions vs XFx ([1]; 40-day healing): 42%
- Vessel Volume vs XFx ([1]; 40-day healing, p=0.029): significant restoration to control level
- bony union ([1]; 40-day healing, Fx 100%, XFx 25%): 67%
- empty lacunae vs XFx ([1]; histomorphometry, p=0.000): decrease
- osteocyte count vs XFx ([1]; histomorphometry, p=0.000): significant restoration to control level
- Bony Unions [2]: 67%
- radiation-induced decreases in all metrics [2]: remediated
- Bone Mineral Density (BMD) vs non-treated controls ([3]; 14 days of consolidation): significant increases
- Bone Volume Fraction (BVF) vs non-treated controls ([3]; 14 days of consolidation): significant increases
- Ultimate Load (UL) vs non-treated controls ([3]; 14 days of consolidation): significant increases
- increase in the number of bony unions vs non-treated controls ([3]; 14 days of consolidation): 100%
- number of clinically appreciated bony unions ([3]; 14 days of consolidation, unions/animals): 8/10
- BVF, BMD, Yield and UL at 14 days vs fully consolidated 28 d control group ([3]; 14 days with treatment): comparable
- bony union rate ([3]; 28 days): 100%
- tubule formation vs radiated cells ([4]; high dose DFO (50 μM), 4, 8 and 12 hours, p=0.02): significantly increased
- tubule formation vs normal (control) levels ([4]; high dose DFO (50 μM), each time point): reached or exceeded normal levels
- time of incubation to organization of cultures ([4]; high-dose DFO (50 μM), real-time recording): ≤ 2 h
